Laboratory results reported in paper PMC11207111, “Assessment of the Activity of Nitroisoxazole Derivatives against Trypanosoma cruzi” (Molecules, 2024).

What was measured:
[1] = Cyclic voltammetry (reduction of the nitro group); type: physicochemical; set-up: key to −EpcI / −EpcII / −EpaII / −EpaI: potentials in V vs Ag/AgCl; |ΔEp|: unit not given here
Description: The chemistry mechanism of reduction in nitroisoxazole derivatives was investigated using cyclic voltammetry.
The peak near −1.32 V corresponds to a quasi-reversible one-electron transfer, according to the criteria of Nicholson–Shain [26] (Table 1), attributable to the species −NO2/NO2.− . The latter species stable anion radical at room temperature. […] An irreversible peak at −0.93 V to the mono-electronic transfer −HNO2/HNO2.− is observed, coupled with a chemical reaction associated with […] of the formed radical. This was evidenced by the addition of NaOH (1 M), which caused a decrease in the Ic peak (Figure 2c).
As previously described, an irreversible signal assigned to hydroxylamine oxidation to a nitroso derivative is also observed for N-acylhydrazones organometallic compounds with a pendant 5-nitrofuryl group. […] Compound 7, which has the least negative reduction potential, can be attributed to introducing a nitro group in the para position of the nitroisoxazole ring. This effect can also be observed in derivatives containing halogens in the same position.
Electrochemical characterization of the new compounds was performed through cyclic voltammetry (CV) on a 693 VA Metrohm instrument (Tokyo, Japan) equipped with a 694 VA Stand converter and 693 VA processor. Potentials were recorded against the Ag/AgCl reference electrode; a hanging drop of mercury (HDME) was used as a working electrode, and platinum was used as an auxiliary electrode. Tetrabutylammonium perchlorate (TBAP, 0.1 M) in DMSO was used as a supporting electrolyte under an N2 atmosphere at room temperature. Using Nicholson´s procedure, the Ipa/Ipc values (RNO2/RNO2^−) were measured from each cyclic voltammogram with a scan rate between 0.1 and 2.5 V/s.

[2] = ORAC-FL antioxidant capacity; conditions: relative to Trolox; phosphate buffer 75 mM, pH 7.4, 37 °C
Description: To corroborate the generation of the nitro radical, the antioxidant capacity of the series under study was determined by ORAC-FL methodology, employing a fluorescent probe to capture oxygen-centered radicals (Table 2). The ORAC-FL values of the studied compounds are close to the reference value of Trolox, indicating a low antioxidant capacity. For compounds (1-3), the presence of amino substituents decreases antioxidant activity due to their […] characteristics, preventing the presence of labile hydrogens. […] Compounds 4 and 10 present similar ORAC indexes as aromatic rings with high electron density insert the transfer of labile protons. Antioxidant capacity was determined using the ORAC-fluorescence methodology (ORAC-FL). The analysis used a 96-well white polystyrene plate reader (EnSpire multimode PerkinElmer, Waltham, MA, USA). The reaction was carried out in phosphate buffer (75 mM, pH 7.4). […] A blank with FL and AAPH, using dimethyl sulfoxide instead of the antioxidant solution, was used in each assay. […] The inhibitor capacity was expressed as ORAC-FL values and quantified by integrating the area under the curve (AUCNET). All reaction mixtures were prepared in triplicate, and at least three independent assays were performed for each sample. The area under the fluorescence decay curve (AUC) was calculated by integrating the fluorescence decay where F0 is the initial fluorescence read at 0 min, and F is the fluorescence read at the time. The AUCNET corresponding to the sample was calculated by subtracting the AUC corresponding to the blank. Data were processed using Origin […].5 SR2 (San Francisco, CA, USA). The ORAC-FL indices were calculated according to the following Equation (1): (1) ORAC-[…]]

[3] = test system: epimastigote of T. cruzi Dm28; assay: Trypanocidal activity (MTT) on epimastigotes; type: cell-based; conditions: Trypanosoma cruzi; for killing at 100 µM: 24 h, n.a = not active, read-out: % T. cruzi Epimastigote (trypanocidal effect)
Description: As a preliminary step, a study of nitroisoxazole derivatives on the epimastigote form of T. cruzi was performed. Despite the epimastigote form not being a clinical form present in mammals, its easy handling has allowed screening for the trypanocidal activity of various compounds. It is worth noting that, during the intracellular life cycle of the parasite, a form similar to the epimastigote, which is biochemically and morphologically identical to the form present in the vector, has been described. […] RPMI 1640 medium) for 24 h. […] The effects of the compounds on trypomastigote and Vero cell viability were evaluated by tetrazolium salt reduction assay (MTT). […] The plates were kept overnight at 37 °C (28 °C for epimastigotes), and the optical density (OD) was determined using a 96-well microplate reader (Vantaa, Finland) at 570 nm. Under these conditions, the OD is directly proportional to each well’s viable number of cells. The experiments were performed in triplicate across three different assays.

[4] = test system: trypomastigote of T. cruzi Dm28; assay: Trypanocidal activity (MTT) on trypomastigotes; type: cell-based; conditions: Trypanosoma cruzi; for killing at 100 µM: 24 h, n.a = not active, read-out: % T. cruzi Trypomastigote (trypanocidal effect); for IC50: T. cruzi Dm28, 24 h
Description: As a preliminary step, a study of nitroisoxazole derivatives on the epimastigote form of T. cruzi was performed. Despite the epimastigote form not being a clinical form present in mammals, its easy handling has allowed screening for the trypanocidal activity of various compounds. It is worth noting that, during the intracellular life cycle of the parasite, a form similar to the epimastigote, which is biochemically and morphologically identical to the form present in the vector, has been described. […] This is consistent with studies by Fonseca-Berzal et al. […] Additionally, compounds with higher activity have aromatic rings as substituents for nitroisoxazoles, confirming what was described Do […] [40]. […] It has also been determined that the presence of an isoxazole is essential for activity, as its aromatic structure contains a weak nitrogen-oxygen bond that, under different reaction conditions, can undergo ring cleavage, increasing activity. The results obtained on epimastigotes cannot be conclusive for determining potential Chagas agents, so conducting studies on the infective, extracellular, non-replicative trypomastigote form of T. cruzi present in humans is essential. […] RPMI 1640 medium) for 24 h. […] The effects of the compounds on trypomastigote and Vero cell viability were evaluated by tetrazolium salt reduction assay (MTT). […] The plates were kept overnight at 37 °C (28 °C for epimastigotes), and the optical density (OD) was determined using a 96-well microplate reader (Vantaa, Finland) at 570 nm. Under these conditions, the OD is directly proportional to each well's viable number of cells. The experiments were performed in triplicate across three different assays.

[5] = test system: T. cruzi trypomastigotes; assay: Generation of ROS (DCFH2-DA fluorescent probe); type: cell-based, Trypanosoma cruzi; conditions: 100 µM, 40 min, vs control without compound
Description: To generate radical species on T. cruzi trypomastigotes, intracellular free radicals were determined using the fluorescent probe dichlorofluorescein (DCF).
The cultures were incubated with a 20 µM DCFH2-DA solution for 15 min at 28 °C. Then, they were centrifuged at 3500 rpm and washed 2 times with phosphate buffer saline (PBS) pH 7.4. Cells loaded with DCFH2-DA were transferred to a Nunc® fluorescence 96-well plate (Thermo Fisher Scientific Inc., Waltham, MA, USA), where the nitroisoxazoles derivates were added at 100 µM. Fluorescence (exi: 488 nm, emi: 528 nm) was recorded for 40 min in a BioTek (Winooski, VT, USA) Synergy HT spectrofluorometer. The area under increase curves over time was determined using Oring 8 software, with areas normalized to control. Results are the means ± SD of three independent experiments.

[6] = test system: Vero mammalian cells; assay: Cytotoxicity (MTT) on Vero cells; type: cell-based; conditions: Chlorocebus sabaeus, 24 h
Description: Additionally, the cytotoxicity of the compounds on VERO mammalian cells was assessed (Table 4). […] It is observed that the majority of the derivatives present considerable cytotoxicity. […] RPMI 1640 medium) for 24 h. […] The effects of the compounds on trypomastigote and Vero cell viability were evaluated by tetrazolium salt reduction assay (MTT). […] The plates were kept overnight at 37 °C (28 °C for epimastigotes), and the optical density (OD) was determined using a 96-well microplate reader (Vantaa, Finland) at 570 nm. Under these conditions, the OD is directly proportional to each well’s viable number of cells. The experiments were performed in triplicate across three different assays.

[7] = cyclic voltammetry at 2.0 V/s, DMSO, 0.1 M TBAP, vs Ag/AgCl

For Cc1noc(/C=C/N(C)C)c1[N+](=O)[O-] [Compound 1, (E)-N,N-Dimethyl-2-(3-methyl-4-nitroisoxazol-5-yl)ethen-1-amine], the Ipa/Ipc ([1]; cyclic voltammetry at 2.0 V/s) was −0.44, the “|ΔEp|” value ([1]; cyclic voltammetry at 2.0 V/s) was 140 and the “−EpaII” value [1, 7] was 1.19. The “−EpcII” value [1, 7] was 1.33, the “ORAC-FL Index” value [2] was 0.9 ± 0.2 and the killing at 100 µM [3] was 18 ± 1%. For the same molecule, the melting point was 154 to 156 °C.
For Cc1noc(/C=C/N2CCCC2)c1[N+](=O)[O-] [Compound 2, (E)-3-Methyl-4-nitro-5-(2-(pyrrolidin-1-yl)vinyl)isoxazole], the Ipa/Ipc ([1]; cyclic voltammetry at 2.0 V/s) was 0.32, the “|ΔEp|” value ([1]; cyclic voltammetry at 2.0 V/s) was 120 and the “−EpaII” value [1, 7] was 1.20. The “−EpcII” value [1, 7] was 1.32, the “peak potential, quasi-reversible one-electron transfer −NO2/NO2.−” value ([1]; cyclic voltammogram, Figure 2a) was roughly −1.32 V and the “ORAC-FL Index” value [2] was 0.14 ± 0.05. For the same molecule, the killing at 100 µM [3] was 19 ± 3% and the melting point was 145 to 147 °C.
Cc1noc(/C=C/N2CCCCC2)c1[N+](=O)[O-] [Compound 3, (E)-3-Methyl-4-nitro-5-(2-(piperidin-1-yl)vinyl)isoxazole] showed a killing at 100 µM [4] of 20 ± 2%, an IC50 [4] greater than 400 µM and an Ipa/Ipc ([1]; cyclic voltammetry at 2.0 V/s) of −0.19. The “|ΔEp|” value ([1]; cyclic voltammetry at 2.0 V/s) was 100, the “−EpaII” value [1, 7] was 1.19 and the “−EpcII” value [1, 7] was 1.29. For the same molecule, the “ROS generation (DCF fluorescence intensity)” value [5] was “increase in fluorescence intensity”, the IC50 [6] was greater than 400 µM and the “ORAC-FL Index” value [2] was 0.52 ± 0.05. For the same molecule, the killing at 100 µM [3] was 17 ± 5%, the IC50 ([3]; T. cruzi Dm28, 24 h, read-out: IC50 T. cruzi E (epimastigote)) was greater than 400 µM and the melting point was 151 to 153 °C.
For Cc1noc(/C=C/c2ccccc2)c1[N+](=O)[O-] [Compound 4, (E)-3-Methyl-4-nitro-5-styrylisoxazole], the killing at 100 µM [4] was 0%, the Ipa/Ipc ([1]; cyclic voltammetry at 2.0 V/s) was −0.09 and the “|ΔEp|” value ([1]; cyclic voltammetry at 2.0 V/s) was 90. For the same molecule, the “−EpaII” value [1, 7] was 0.80, the “−EpcII” value [1, 7] was 0.89 and the “ORAC-FL Index” value [2] was 0.33 ± 0.06. It also gave a killing at 100 µM [3] of 47 ± 4% and a melting point of 176 to 178 °C.
With Cc1noc(/C=C/c2ccc(C(F)(F)F)cc2)c1[N+](=O)[O-] [Compound 6, (E)-3-Methyl-4-nitro-5-(4-(trifluoromethyl)styryl)isoxazole] the “−EpcII” value [1, 7] was 0.74, the “ORAC-FL Index” value [2] was 0.8 ± 0.1 and the killing at 100 µM [3] was 28 ± 2%. The melting point was 187 to 189 °C.
With Cc1noc(/C=C/c2ccc([N+](=O)[O-])cc2)c1[N+](=O)[O-] [Compound 7, (E)-3-Methyl-4-nitro-5-(4-nitrostyryl)isoxazole] the Ipa/Ipc ([1]; cyclic voltammetry at 2.0 V/s) was −0.44, the “|ΔEp|” value ([1]; cyclic voltammetry at 2.0 V/s) was 70 and the “−EpaII” value [1, 7] was 0.64. For the same molecule, the “−EpcII” value [1, 7] was 0.71, the “ORAC-FL Index” value [2] was 0.57 ± 0.08 and the killing at 100 µM [3] was 36 ± 2%. For the same molecule, the melting point was 225 to 227 °C.
In the case of Cc1noc(/C=C/c2ccco2)c1[N+](=O)[O-] [Compound 10, (E)-5-(2-(Furan-2-yl)vinyl)-3-methyl-4-nitroisoxazole], the Ipa/Ipc ([1]; cyclic voltammetry at 2.0 V/s) is reported as −0.16, the “|ΔEp|” value ([1]; cyclic voltammetry at 2.0 V/s) is reported as 100 and the “−EpaII” value [1, 7] is reported as 0.74. The “−EpcII” value [1, 7] was 0.84, the “ORAC-FL Index” value [2] was 0.36 ± 0.07 and the killing at 100 µM [3] was 42 ± 2%. For the same molecule, the melting point was 145 to 147 °C.
For Cc1ccc(-n2cc(/C=C/c3onc(C)c3[N+](=O)[O-])c3ccccc32)cc1 [Compound 14, (E)-3-Methyl-4-nitro-5-(2-(1-(p-tolyl)-1H-indol-3-yl)vinyl)isoxazole], the killing at 100 µM [4] was 3 ± 1%, the Ipa/Ipc ([1]; cyclic voltammetry at 2.0 V/s) was −0.32 and the “|ΔEp|” value ([1]; cyclic voltammetry at 2.0 V/s) was 120. The “−EpaII” value [1, 7] was 0.84, the “−EpcI” value [1, 7] was 0.72 and the “−EpcII” value [1, 7] was 0.96. The “ORAC-FL Index” value [2] was 0.4 ± 0.1, the killing at 100 µM [3] was 27 ± 2% and the melting point was 208 to 211 °C.
For Cc1noc(/C=C/c2ccccc2Br)c1[N+](=O)[O-] [Compound 15, (E)-5-(2-Bromostyryl)-3-methyl-4-nitroisoxazole], the Ipa/Ipc ([1]; cyclic voltammetry at 2.0 V/s) was −0.14, the “|ΔEp|” value ([1]; cyclic voltammetry at 2.0 V/s) was 100 and the “−EpaI” value [1, 7] was 0.70. The “−EpaII” value [1, 7] was 0.95, the “−EpcI” value [1, 7] was 0.80 and the “−EpcII” value [1, 7] was 1.10. For the same molecule, the “ORAC-FL Index” value [2] was 0.8 ± 0.3, the killing at 100 µM [3] was 29 ± 2% and the melting point was 169 to 172 °C.
For Cc1noc(C)c1[N+](=O)[O-] [Compound P1, 3,5-dimethyl-4-nitroisoxazole], the killing at 100 µM [3] was 14 ± 3%.
With O=CCc1ccc(Br)cc1 [Compound P2, 4-bromophenyl acetaldehyde] the killing at 100 µM [3] was 5 ± 2%.
For CC1CS(=O)(=O)CCN1/N=C/c1ccc([N+](=O)[O-])o1 (stereo not drawn) [Nfx, nifurtimox, reference compound], the killing at 100 µM [4] was 74 ± 1%, the IC50 [4] was 10.04 ± 0.1 µM and the IC50 [6] was 172.9 ± 0.1 µM. The killing at 100 µM [3] was 98.9 ± 0.3%.
For Cc1c(C)c2c(c(C)c1O)CCC(C)(C(=O)O)O2 (stereo not drawn) [Trolox, reference compound], the “ORAC-FL Index” value [2] was 1.00 ± 0.01.
